{
  "source": "patent US20070196886A1",
  "about": "(priority 2004, published 2007)",
  "format_in_all_cases": "biochemical",
  "key": {"[1]": {"target": "T1, [Ile931]β′ RNAP holoenzyme (Escherichia coli, UniProt P0A8T7+P0A8V2, T931I)", "T1 construct": "[Ile931]β′ RNAP core and holoenzyme were prepared from strain 397c; hexahistidine (C); made in house; host or cells: E. coli strain 397c (rpoC^ts397) transformed with a pRL663 derivative", "test": "Transcription assays with RNAP derivative bearing Thr931→Ile substitution in β′", "protocol": "(§1) Following 15 min at 37° C., 0.5 μl 1 mg/ml heparin was added, and, following a further 2 min at 37° C., RNA synthesis was initiated by addition of 2 μl 5 mM ApA and 125 μM (or 250 μM, 500 μM, and 1 mM) each of [α-^32P]UTP (0.6 Bq/fmol), ATP, CTP, GTP. Following 5 min at 37° C., reactions were terminated by addition of 10 μl 80% formamide, 10 mM EDTA, 0.04% bromophenol blue, and 0.04% xylene cyanol. Products were heated 10 min at 90° C., resolved by urea-PAGE (Sambrook and Russel, (2001)), and quantified using a storage-phosphor scanner (Storm 860; Molecular Dynamics). Identities of tri- and tetranucleotide abortive products were defined as in Borowiec and Gralla, (1985) J. Mol. Biol. 184, 587-598). Data were fit to full-competitive, partial-competitive, full-noncompetitive, partial-noncompetitive, full-uncompetitive, partial-uncompetitive, full-mixed, and partial-mixed models of inhibition using the Fit-To-Model feature of the SigmaPlot Enzyme Kinetics Module (SPSS)."}, "[2]": {"target": "T2, halted transcription elongation complex containing 12 nt of RNA (TEC12) (Escherichia coli, UniProt P0A8T7+P0A8V2)", "T2 construct": "made in house", "test": "Transcription experiment starting with halted elongation complex (TEC12)", "conditions": "0, 1, 10, or 100 μM MccJ25; compared with open-complex experiments", "protocol": "TEC12 was prepared by reaction for 5 min at 37° C. with 0.5 mM ApA, and 12.5 μM each of [α-^32P]UTP, ATP, and GTP."}, "RNAP holoenzyme": {"target": "RNAP holoenzyme (Escherichia coli, UniProt P0A8T7+P0A8V2)", "conditions": "for Vmax: FIG. 3E", "protocol": "as §1"}},
  "note": "Where two headings read alike, the source gives them in different places.",
  "data": [
    {"substance": "Microcin J25 [MccJ25]", "values": [
      {"measurement": "inhibition upon substitution of residue 931 of the RNAP β′ subunit", "setting": "[1]", "value": "overcome completely"},
      {"measurement": "inhibition of formation of full-length product starting with halted elongation complex", "setting": "[2]", "value": "equivalent results"},
      {"measurement": "mode of inhibition with respect to NTPs", "setting": "RNAP holoenzyme", "value": "partial competitive"},
      {"measurement": "inhibition of formation of abortive products (3 nt and 4 nt RNA species)", "setting": "RNAP holoenzyme; 100 μM MccJ25, 5 min at 37° C.", "value": 86, "unit": "%"},
      {"measurement": "inhibition of formation of the full-length product (26 nt RNA species)", "setting": "RNAP holoenzyme; 100 μM MccJ25, 5 min at 37° C.", "value": 94, "unit": "%"},
      {"measurement": "effect of high NTP concentrations on inhibition", "setting": "RNAP holoenzyme; NTP 12.5, 25, 50, 100 μM", "value": "can overcome inhibition"},
      {"measurement": "Vmax", "setting": "RNAP holoenzyme; at 1 μM MccJ25", "value": "1.9±0.4", "unit": "mol/mol template/min"},
      {"measurement": "Vmax", "setting": "RNAP holoenzyme; at 10 μM MccJ25", "value": "1.4±0.7", "unit": "mol/mol template/min"}
    ]}
  ]
}
